From US8580852B2, “2-oxamide inhibitors of phospholipase A2 activity and cellular arachidonate release based on dipeptides and pseudopeptides” (The Regents of the University of California, priority 2009, dated 2013)
Where “and” joins values, the source holds several entries; their conditions need not be identical. Identical values can stand only once.

What follows are molecules tested against T1, GVIA iPLA2 (Homo sapiens, UniProt O60733) (assay: In vitro PLA2 mixed micellar assay (modified Dole assay), GVIA iPLA2). Settings: at 0.091 mole fraction of inhibitor, n = 3.
T1 sequence (O60733 1-806): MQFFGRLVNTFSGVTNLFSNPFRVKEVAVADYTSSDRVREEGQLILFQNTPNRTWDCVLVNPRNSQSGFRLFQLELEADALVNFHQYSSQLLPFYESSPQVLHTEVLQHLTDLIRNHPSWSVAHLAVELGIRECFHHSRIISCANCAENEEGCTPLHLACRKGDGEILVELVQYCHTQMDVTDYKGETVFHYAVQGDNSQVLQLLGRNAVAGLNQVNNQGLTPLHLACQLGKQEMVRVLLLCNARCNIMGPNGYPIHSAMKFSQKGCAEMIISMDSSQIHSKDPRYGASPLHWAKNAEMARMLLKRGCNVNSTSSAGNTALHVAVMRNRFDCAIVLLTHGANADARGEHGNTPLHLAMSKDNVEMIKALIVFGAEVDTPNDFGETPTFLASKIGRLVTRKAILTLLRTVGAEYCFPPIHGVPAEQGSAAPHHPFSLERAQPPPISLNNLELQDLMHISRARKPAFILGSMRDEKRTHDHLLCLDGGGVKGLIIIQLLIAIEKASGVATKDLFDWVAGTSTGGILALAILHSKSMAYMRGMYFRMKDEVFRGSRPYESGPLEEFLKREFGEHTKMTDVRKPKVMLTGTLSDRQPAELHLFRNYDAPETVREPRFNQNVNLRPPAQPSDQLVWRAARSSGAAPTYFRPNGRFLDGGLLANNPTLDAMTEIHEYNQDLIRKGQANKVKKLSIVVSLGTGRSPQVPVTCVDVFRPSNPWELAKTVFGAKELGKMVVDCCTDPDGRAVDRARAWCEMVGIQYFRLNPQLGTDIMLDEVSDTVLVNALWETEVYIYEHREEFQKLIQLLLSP
Type: biochemical
Method: FIG. 3 illustrates the dose-response curves for 2-oxoamide inhibitors of GVIA iPLA2. Inhibition of the activity of human GVIA iPLA2 by inhibitors (a) 8a and (b) 13 was tested on mixed-micelles containing 100 μM PAPC and 400 μM Triton X-100. Inhibition curves were generated by Graphpad Prism using a non-linear regression (one-site binding model—hyperbola) to calculate the reported XI(50) values.
All the inhibitors synthesized in this work were tested for inhibition of GIVA cPLA2, GVIA iPLA2 and GV sPLA2 using mixed micellar assays. Details for the assays have been published previously. The results of the inhibition are presented in Table 1 using either percent inhibition or XI(50) values. Initially, the percent inhibition of each PLA2 at 0.091 mole fraction of inhibitor was determined. XI(50) values were estimated when the percent inhibition was higher than 90%. The XI(50) is the mole fraction of the inhibitor in the total substrate interface required to inhibit the enzyme by 50%. Data for the reference 2-oxoamide inhibitors AX006 and AX048 are included in Table 1 for comparison.
Phospholipase A2 activity was determined using the previously described modified Dole assay with buffer and substrate conditions optimized for each enzyme as described previously: (i) GIVA cPLA2 substrate mixed-micelles were composed of 400 μM Triton X-100, 97 μM PAPC, 1.8 μM ^14C-labeled PAPC, and 3 μM PIP2 in buffer containing 100 mM HEPES pH 7.5, 90 μM CaCl2, 2 mM DTT and 0.1 mg/ml BSA; (ii) GVI iPLA2 substrate mixed-micelles were composed of either (a) 400 μM Triton X-100, 99 μM DPPC, and 1.5 μM ^14C-labeled DPPC in buffer containing 200 mM HEPES pH 7.0, 1 mM ATP, 2 mM DTT and 0.1 mg/ml BSA or (b) 400 μM Triton X-100, 98.3 μM PAPC, and 1.7 μM ^14C-labeled PAPC in buffer containing 100 mM HEPES pH 7.5, 2 mM ATP and 4 mM DTT; and (iii) GV sPLA2 substrate mixed-micelles were composed of 400 μM Triton X-100, 99 μM DPPC, and 1.5 μM ^14C-labeled DPPC in buffer containing 50 mM Tris pH 8.0 and 5 mM CaCl2.
Initial screening of compounds at 0.091 mole fraction inhibitor in mixed-micelles was carried out. Compounds displaying 25% or less inhibition had no inhibitory affect (designated N.D.). The average percent inhibition (and standard error, n=3) for compounds displaying more than 25% and less than 90% enzyme inhibition is reported herein. If the percent inhibition was greater than 90%, then its XI(50) was determined by plotting percent inhibition vs. inhibitor molar fraction (7 points; typically 0.005 to 0.091 mole fraction). Inhibition curves were modeled in Graphpad Prism using either a linear (x, y intercept=0) or non-linear regression (one-site binding model—hyperbola, BMAX=100) to calculate the reported XI(50) and associated error values.

Compound	GVIA iPLA2 % inhibition
CCCCCCCCCCCCCCC(=O)C(=O)N[C@H](C(=O)NCC(=O)OC)C(C)C [Compound 4b, (S)-Methyl-2-(3-methyl-2-(2-oxohexadecanamido)butanamido)-acetate]	N.D.^a (N.D. signifies compounds with less than 25% inhibition (or no detectable inhibition).)
CCCCCCCCCCCCCCC(=O)C(=O)N[C@@H](CCCC)C(=O)NCC(=O)O [Compound 9a, (S)-2-(2-(2-Oxohexadecanamido)hexanamido)acetic Acid]	N.D.^a (N.D. signifies compounds with less than 25% inhibition (or no detectable inhibition).)
CCCCCCCCCCCCCCC(=O)C(=O)N[C@H](C(=O)NCC(=O)O)C(C)C [Compound 9b, (S)-2-(3-Methyl-2-(2-oxohexadecanamido)butanamido)acetic Acid]	N.D.^a (N.D. signifies compounds with less than 25% inhibition (or no detectable inhibition).)
CCCCCCCCCCCCCCC(=O)C(=O)N[C@@H](CCCC)COCC(=O)OC(C)(C)C [Compound 17, (S)-tert-Butyl 2-(2-(2-oxohexadecanamido)hexyloxy)acetate]	81%
CCCCCCCCCCCCCCC(=O)C(=O)N[C@@H](CCCC)COCC(=O)O [Compound 18, (S)-2-(2-(2-oxohexadecanainido)hexyloxy)acetic Acid]	N.D.^a (N.D. signifies compounds with less than 25% inhibition (or no detectable inhibition).)

Same assay, conditions: mixed micelles; mole fraction of inhibitor in total substrate interface required to inhibit the enzyme by 50%

Compound	GVIA iPLA2 X1(50)
CCCCCCCCCCCCCCC(=O)C(=O)N[C@@H](CCCC)C(=O)NCC(=O)OC [Compound 4a, (S)-Methyl 2-(2-(2-oxohexadecanamido)hexanamido)acetate]	0.045 ± 0.018 mole fraction
CCCCCCCCCCCCCCC(=O)C(=O)N[C@@H](CCCC)C(=O)NCC(=O)OCC [Compound 4c, (S)-Ethyl 2-(2-(2-oxohexadecanamido)hexanamido)acetate]	0.020 mole fraction and 0.020 ± 0.002 mole fraction
CCCCCCCCCCCCCCC(=O)C(=O)N[C@@H](CCCC)C(=O)NCC(=O)OC(C)(C)C [Compound 8a, (S)-tert-Butyl 2-(2-(2-oxohexadecanamido)hexanamido)acetate]	0.011 mole fraction and 0.011 ± 0.001 mole fraction
CCCCCCCCCCCCCCC(=O)C(=O)N[C@H](C(=O)NCC(=O)OC(C)(C)C)C(C)C [Compound 8b, (S)-tert-Butyl-2-(3-methyl-2-(2-oxohexadecanamido)butanamido)-acetate]	0.044 ± 0.025 mole fraction
CCCCCCCCCCCCCCC(=O)C(=O)N[C@@H](CCCC)COCC(=O)OCC [Compound 13, (S)-Ethyl 2-(2-(2-oxohexadecanamido)hexyloxy)acetate]	0.017 mole fraction and 0.017 ± 0.002 mole fraction
